We go through two compounds from publication PMC11493283, “N^4-Hydroxycytidine/molnupiravir inhibits RNA virus-induced encephalitis by producing less fit mutated viruses” (PLOS Pathogens, 2024).

Series [1] has as its system LACV. As to the kind of experiment: Antiviral efficacy against LACV in Vero cells, virus titer by plaque assay. The following applies: La Crosse virus, LACV 0.1 MOI, 24 hpi, read-out: EC50 (50% reduction in virus titer). It counts as cell-based. On the procedure:
(§1) Cells were seeded in 24-well plates (1 × 10^5 cells/well) and infected with LACV (0.1 MOI). At 1 hour post infection (hpi), medium was replaced with fresh medium containing 6 different concentrations for each of the drugs. RBV and FAV were tested at concentrations of 1, 3, 10, 30, 100, and 300 μM, while NHC was tested at concentrations of 0.1, 0.3, 1, 3, 10 and 30 μM. DMSO was used as vehicle control. At 24 hpi, the cell supernatant was harvested, centrifuged to eliminate cell debris and stored at −80 °C for sequencing (described below) and plaque assay following the method of Ojha et al. 2021 [32]. Quantified virus titers were plotted to represent antiviral efficacy. The EC50 (50% effective concentration representing a 50% reduction in virus titer) was determined by extrapolating a dose-response curve using GraphPad Prism 8 and 9.

For series [2], the system named is LACV. As to the kind of experiment: Antiviral efficacy against LACV in N2a cells, virus titer by plaque assay. Type of series: cell-based. The following applies: La Crosse virus, LACV 0.1 MOI, 24 hpi, read-out: EC50 (50% reduction in virus titer). On the procedure: as §1
Series [3] deals with LACV. Kind of series: Antiviral efficacy against LACV in hNSCs, virus titer by plaque assay. The following applies: La Crosse virus, LACV 0.1 MOI, 24 hpi, read-out: EC50 (50% reduction in virus titer). Type of series: cell-based. The method, then:
as §1

The subject of series [4] is LACV. As to the kind of experiment: MPID-NGS mutation rate of LACV in cell culture. Type of series: cell-based, La Crosse virus. The following applies: Vero cells; RBV, FAV: increase only at 100 μM; NHC also in hNSCs and N2a. On the procedure: as §1
We used a Primer ID (PID) library preparation approach with Illumina MiSeq next-generation sequencing (NGS) to examine the mutagenic effects of these drugs on viral RNA allowing deep coverage of the viral population while maintaining a low method error rate (1 in 10,000 nucleotides). We designed cDNA primers targeting a 372 bp region of the RdRp gene within the L segment (referred as L7 in the study), and included a second amplicon covering a 455 bp portion of the M segment (referred as M4 in the study). Each cDNA primer included a block of random nucleotides (11 bases long) as the Primer ID/unique molecular identifier (UMI). […] After gel purification/extraction of the PCR product (Qiagen MinElute Gel Extraction kit), the extracted libraries were quantified using a Qubit fluorimeter and subjected to Agilent TapeStation analysis. For each sequencing run, 24 quantified libraries were pooled for MiSeq 300 base paired-end sequencing at the UNC High Throughput Sequencing Facility. […] Each type of substitution rate was calculated against the wildtype sequence at the sequenced regions. The sequencing date were submitted to the National Center for Biotechnology Information (NCBI) Sequence Read Archive (SRA), accession number is PRJNA1092655.

Series [5] concerns Vero cells. The following applies: copied and converted to µM from µg/ml, ref not given; cited from earlier work.
The subject of series [6] is hNSCs. The following applies: copied and converted to µM from µg/ml, ref not given; cited from earlier work.
Series [7] concerns LACV. Kind of series: Serial passage of LACV in presence of NHC in Vero cells (resistance selection). It counts as cell-based, La Crosse virus. The following applies: for EC50: La Crosse virus, Vero cells. On the procedure: as §1
We used a digital scanner to scan the plaque assay plates. Digitized images were imported into FIJI/ImageJ v1.52n, and pixel calibration values were calculated based on the well diameter and corresponding digitized image. To quantify plaque size (surface area), wells with clearly isolated plaques were selected for segmentation and analysis. The image lookup table for each well was inverted followed by binarization prior to analysis, with a minimum area of 0.39 mm^2 to eliminate false positives due to slight variations in crystal violet staining. The measurements were imported into Microsoft Excel for data compilation, and graphed and analyzed using GraphPad Prism v9.3.1. Analysis of plaque size was done only when the plaque assays for different virus samples were done in parallel.
Vero cells were seeded at 5×10^5 cells/well in a 6-well plate for each passage. For the first passage, Vero cells were infected with LACV at MOIs of 10, 0.1, and 0.001 in 3 ml of medium, and treated with 0.1 μM of NHC or DMSO vehicle control. After 3 dpi, the virus inoculum was harvested from wells where more than 25% of cells were still attached to the well (using light microscopy). The harvested supernatants were centrifuged to clarify dead cells and then used to reinfect Vero cells at dilutions of 1:1,000, 1:100,000, and 1:10,000,000 and treated with 0.1 μM NHC for the first series of 5 passages where at each passage the culture with the highest dilution of virus that still gave rise to incomplete CPE (i.e. 25% of the cells still attached) was saved for the next passage. Second, third, and fourth series of 5 passages were treated with 0.2, 0.4 and 0.8 μM of NHC, respectively. After 20 passages in total, virus suspensions were collected, centrifuged, and frozen at −80°C to perform dose-dependent antiviral activity and plaque assays for virus titers (as described above).

Series [8] has as its system Cache Valley virus (CVV). Kind of series: Antiviral efficacy against Cache Valley virus in Vero cells, plaque assay. Type of series: cell-based. The following applies: 24 hpi, read-out: EC50 infectious virus production. The method, then: as §1
(§2) We also evaluated the ability of NHC to inhibit the replication of two other orthobunyaviruses, Cache Valley virus (CVV) and Jamestown Canyon (JCV). JCV belongs to the same serogroup as LACV but causes neurological disease in both children and adults. CVV is a member of the Bunyamwera serogroup and is the most common orthobunyavirus in the United States. Infections were done following the same protocol as for Fig 1. […] Thus, NHC inhibited virus replication for multiple orthobunyaviruses in different serogroups with similar potency.

Series [9] has as its system Jamestown Canyon (JCV). Kind of series: Antiviral efficacy against Jamestown Canyon virus in Vero cells, plaque assay. Type of series: cell-based. The following applies: 24 hpi, read-out: EC50 infectious virus production. The method, then: as §1, §2
Series [10] in a line: in vitro. The following applies: MTT, 24h. It counts as cell-based. The method, then:
Method: Cells were seeded in 96-well plates (1-2x10^4 cells/well) after attachment different concentrations of each drug containing fresh media were added to each well, in triplicate. DMSO was used as a control. At 24h post-treatment, MTT assays were carried out according to the manufacturer’s instructions (Invitrogen, ThermoFisher Scientific). The absorbance was measured using the Synergy 4 cell plate reader (BioTek) at 540 nm. This assay was used to estimate the drug-induced cytotoxicity using the following formula: (sample absorbance/DMSO absorbance) × 100%. The CC50 (50% cytotoxic concentration) was determined by extrapolating the dose–response curve.

Turning to `NC(=O)c1nc(F)c[nH]c1=O` [FAV, favipiravir], the figures for the EC50 in series [1], in series [2] and in series [3] were 58.3 µM, 30.1 µM and 206 µM, respectively. Further, the “mutation rate of LACV grown in presence of drug” value in [4] was “did not see a significant increase in mutation rates”. In addition, the CC50 was 3340 µM in series [5] and 1060 µM in series [6].
Consider `O=c1nc(NO)ccn1[C@@H]1O[C@H](CO)[C@@H](O)[C@H]1O` [NHC, N^4-hydroxycytidine], for which the EC50 in series [1] is 0.57 µM; in [2] it was 1.5 µM; in series [3], 1.2 µM; in series [7] (after 20 passages with 0.1 to 0.8 μM NHC, read-out: EC50 against NHC-selected LACV), 0.49 µM; in series [7] (after 20 passages, read-out: EC50 against control (DMSO) passaged LACV), 0.5 µM; in series [8], 0.25 µM. Also, the EC50 in series [9] stood at 0.3 µM. Moreover, in series [7] (passage 20), the “supernatant virus titer at end of selection lower than control passaged virus” value is given as “approximately 15 fold”. Further, the “average plaque size of virus passaged with NHC vs DMSO control” value in series [7] (passage 20 virus stocks) is reported as “significantly smaller”. Moreover, the CC50 was found to be 203 µM in [10] (African green monkey, Vero cells) and 132 µM in series [10] (human, hNSCs). The “mutation rate of LACV grown in presence of drug” value in series [4] is given as “dose-dependent relationship”.
